Assay results: ChEMBL document CHEMBL4627285, “Multi-step parallel synthesis enabled optimization of benzofuran derivatives as pan-genotypic non-nucleoside inhibitors of HCV NS5B” (Bioorg Med Chem Lett, 2020)
Converted amounts (≈) assume the structure as drawn.

Tests used:
[1] = Volume of distribution in Wistar rat; assay type: ADME; settings: in vivo
[2] = Solubility of compound in FASSIF at pH 6.5; assay type: physicochemical
[3] = MRT in Wistar rat; assay type: ADME; settings: in vivo
[4] = Clearance in Wistar rat; assay type: ADME; settings: in vivo
[5] = AUC in Wistar rat; assay type: ADME; settings: in vivo

Structure (SMILES) | Vd [1] [L/kg] | solubility ([2]; FaSSIF, read-out: solubility) [µM] | MRT [3] [h] | clearance [4] [mL/min/kg] | AUC [5] [µM·h] | solubility ([2]; simulated gi fluid) [µM]
CNC(=O)c1c(-c2ccc(F)cc2)oc2cc(N(C)S(C)(=O)=O)c(-c3ccc4nc(C)n(Cc5ccc(F)cc5)c(=O)c4c3)cc12 | 4.28 | 70 (≈ 45 µg/mL) | 2.84 | 27.4 | 1.06 | –
CNC(=O)c1c(-c2ccc(F)cc2)oc2cc(N(C)S(C)(=O)=O)c(-c3ccc4c(n3)-c3cc5c(F)cccc5n3CO4)cc12 [MK-8876] | 5.79 | – | 18.1 | 7.03 | 3.92 | 42 (≈ 25.8 µg/mL)
